Tests used:
Serine protease 1 = target: T1, Serine protease 1 (Bos taurus, UniProt P00760); assay: Compound (isomer) was tested in the absence of light for inhibitory activity against trypsin.
T1 sequence (P00760 whole entry): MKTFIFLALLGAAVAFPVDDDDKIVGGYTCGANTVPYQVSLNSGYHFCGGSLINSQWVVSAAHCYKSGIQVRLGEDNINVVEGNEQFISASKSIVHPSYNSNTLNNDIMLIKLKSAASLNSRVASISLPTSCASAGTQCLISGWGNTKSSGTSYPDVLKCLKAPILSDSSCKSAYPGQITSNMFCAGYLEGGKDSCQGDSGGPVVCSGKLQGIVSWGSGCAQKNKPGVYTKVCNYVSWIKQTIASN

Coagulation factor X = Coagulation factor X (Homo sapiens, UniProt P00742); assay: Compound (isomer) was tested in the absence of light for inhibitory activity against Human Coagulation factor X
Coagulation factor X, sequence (P00742 41-179 limits assumed): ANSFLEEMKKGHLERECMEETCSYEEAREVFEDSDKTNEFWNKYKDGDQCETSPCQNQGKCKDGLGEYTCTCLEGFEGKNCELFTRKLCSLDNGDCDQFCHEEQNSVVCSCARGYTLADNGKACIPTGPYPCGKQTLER
Coagulation factor X, sequence (P00742 235-488 limits assumed): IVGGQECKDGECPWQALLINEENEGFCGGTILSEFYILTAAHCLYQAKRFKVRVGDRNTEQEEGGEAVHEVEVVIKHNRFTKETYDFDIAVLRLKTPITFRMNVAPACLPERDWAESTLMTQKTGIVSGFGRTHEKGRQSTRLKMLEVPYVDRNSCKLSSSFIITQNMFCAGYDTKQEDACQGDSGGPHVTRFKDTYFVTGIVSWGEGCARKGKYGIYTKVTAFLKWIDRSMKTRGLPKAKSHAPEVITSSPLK

Prothrombin = Prothrombin (Homo sapiens, UniProt P00734); assay: Compound (isomer) was tested in the absence of light for inhibitory activity against thrombin.

| Ki (Serine protease 1) [nM] | Ki (Coagulation factor X) [µM] | Ki (Prothrombin) [nM] | Structure (SMILES) |
| --- | --- | --- | --- |
| 280 | 17 |  | N=C(N)c1ccc(/C=C2\CCCC/C(=C\c3ccc(C(=N)N)cc3)C2=O)cc1 |
| 29 |  | 130 | N=C(N)c1ccc(/C=C2/CCCC/C(=C\c3ccc(C(=N)N)cc3)C2=O)cc1 |
